Assay results published in paper PMC9230201, “Sustained Consumption of a Decaffeinated Green Coffee Nutraceutical Has Limited Effects on Phenolic Metabolism and Bioavailability in Overweight/Obese Subjects” (Nutrients, 2022).

Tests used:
[1] = Fecal excretion of phenolic metabolites after intake of the GCPE nutraceutical; conditions: feces
Experimental: Participants attended the Human Nutrition Unit (HNU) at the Institute of Food Science, Technology and Nutrition (ICTAN-CSIC) on two consecutive days at the beginning of the intervention (week 0) and also on two consecutive days at the end of the study, after consuming daily two doses of the GCPE nutraceutical, providing 600 mg/d phenols, during two months (week 8). […] A licensed health care professional placed an intravenous catheter in the subjects′ nondominant arm and collected a fasting blood sample (baseline, 0 h). Then, subjects drank the soluble GCPE nutraceutical dissolved in 200 mL of water. […] On the sampling days, volunteers remained at the HNU, where a (poly)phenol-free diet was provided. Half an hour after consuming the nutraceutical, volunteers ate a breakfast consisting of ham, cheese, white bread, and a yogurt. Lunch (paella, bread, and yogurt) and an afternoon snack (muffin and yogurt) were eaten 5 and 9 h, respectively, after consuming the nutraceutical. Water and isotonic beverages were freely available. […] The same protocol was followed during visits at the end of the 8-week intervention. On each occasion, two days before each visit to the HNU, subjects consumed a low (poly)phenol diet free of foods containing hydroxycinnamates such as coffee, herbal teas, red wine, artichokes, whole grain cereals, vegetables, fruits and fruit juices, and dried fruits. Only banana, watermelon, cantaloupes, and potatoes were allowed.
Blood samples were immediately centrifuged (10 min, 3000 rpm, 4 °C) to obtain plasma. […] All biological samples were stored at −80 °C until analysis.
To extract plasma metabolites, 10 µL of 50% (v/v) aqueous formic acid, and 900 µL cold acetonitrile containing 50 µL of 10% (w/v) ascorbic acid were added to 400 µL defrosted plasma. Samples were vortexed and centrifuged (14,000 rpm, 10 min, 4 °C), repeating the extraction and combining the two supernatants, which were reduced to dryness under nitrogen [13]. Dried samples were resuspended in 150 µL of 0.1% aqueous formic acid (containing 10% acetonitrile acidified with 0.1% formic acid), centrifuged (15 min, 14,000 rpm, 4 °C), and the supernatant collected. Urine samples were diluted 1:1 with Milli-Q water and centrifuged (14,000 rpm, 20 min, 4 °C) prior to analysis. Phosphate-buffered saline (3 mL) was added to a representative 300 mg sample of thawed feces, homogenized in an ultrasound bath during 10 min, centrifuged (14,000 rpm, 20 min, 4 °C), and the supernatants collected.
Mobile phase A was 0.1% formic acid in Milli-Q water, and mobile phase B was acetonitrile containing 0.1% formic acid at a 0.3 mL/min flow rate. […] Metabolites were identified based on their retention time using authentic standards when possible. […] Urine concentration of excreted metabolites was normalized to the total volume excreted in each studied interval.
Plasma (30 µL), urine (5 µL) and fecal extracts (5 µL) were filtered through 0.45 µm
cellulose-acetate membrane filters and injected into an Agilent 1200 series LC system
ESI-Jet Stream Technology (Agilent Technologies). A reverse-phase Ascentis Express
C18 (15 cm x 3 mm, 2.7 µm) column (Sigma-Aldrich Quimica, Madrid), preceded by a
phase A was 0.1% formic acid in Milli-Q water, and mobile phase B was acetonitrile
containing 0.1% formic acid at a 0.3 mL/min flow rate. The gradient started with 10% B
at 0 min, 30% B at 10 min, 40% B at 15 min, reaching 50% B at 20 min. The starting
gradient was then re-established in 2 min and maintained for 8 min to re-equilibrate the

[2] = Urinary excretion of phenolic metabolites after intake of the GCPE nutraceutical; conditions: for Cumulative urinary excretion, Total 0–24 h: urine, mean ± SEM, n = 9
[3] = Plasma pharmacokinetics of phenolic metabolites after intake of the GCPE nutraceutical (LC-MS-QToF); conditions: for Cmax: mean ± SEM, n = 9

Amount of fecal metabolite excreted at 0 h ([1]; week 0, mean ± SEM, n = 9): 0.0009 ± 0.0007 µmol/g | Amount of fecal metabolite excreted at 0 h ([1]; week 8): 0.002 ± 0.002 µmol/g | Amount of fecal metabolite excreted at 24 h ([1]; week 0): 0.002 ± 0.001 µmol/g | Amount of fecal metabolite excreted at 24 h ([1]; week 8): 0.0003 ± 0.0003 µmol/g | Cumulative urinary excretion, Total 0–24 h ([2]; week 0): 1.5 ± 0.2 µmol | Cumulative urinary excretion, Total 0–24 h ([2]; week 8): 1.5 ± 0.2 µmol | Amount excreted in urine, 0- 3 h ([2]; week 0, interval 0–3 h): 0.8 ± 0.2 µmol | Amount excreted in urine, 3-6 h ([2]; week 0, interval 3–6 h): 0.5 ± 0.1 µmol | Amount excreted in urine, 6-9 h ([2]; week 0, interval 6–9 h): 0.13 ± 0.04 µmol | Amount excreted in urine, 9-11 h ([2]; week 0, interval 9–11 h): 0.03 ± 0.01 µmol | Amount excreted in urine, 11-24 h ([2]; week 0, interval 11–24 h): 0.09 ± 0.01 µmol | Amount excreted in urine, 0- 3 h ([2]; week 8, interval 0–3 h): 0.8 ± 0.1 µmol | Amount excreted in urine, 3-6 h ([2]; week 8, interval 3–6 h): 0.39 ± 0.07 µmol | Amount excreted in urine, 6-9 h ([2]; week 8, interval 6–9 h): 0.2 ± 0.04 µmol | Amount excreted in urine, 9-11 h ([2]; week 8, interval 9–11 h): 0.05 ± 0.03 µmol | Amount excreted in urine, 11-24 h ([2]; week 8, interval 11–24 h): 0.08 ± 0.02 µmol
Structure (SMILES): COc1cc(/C=C/C(=O)O[C@@H]2C[C@@](O)(C(=O)O)C[C@@H](O)[C@@H]2O)ccc1O [5-Feruloylquinic acid]
AUC0–24h ([3]; week 0): 0.09 ± 0.02 µM/min | Cmax ([3]; week 0, GCPE nutraceutical with 300 mg hydroxycinnamic acids): 32 ± 4 nM | Tmax (h) or Range ([3]; week 0, first peak where biphasic): 0.9 ± 0.1 h | AUC0–24h ([3]; week 8): 0.08 ± 0.02 µM/min | Cmax ([3]; week 8, GCPE nutraceutical with 300 mg hydroxycinnamic acids): 34 ± 5 nM | Tmax (h) or Range ([3]; week 8, first peak where biphasic): 0.9 ± 0.1 h
